{"source": "patent US20130251731A1", "about": "“Tau Acetylation in the Pathogenesis of Alzheimers Disease and Other Related Tauopathies” (THE TRUSTEES OF THE UNIVERSITY OF PENNSYLVANIA, priority 2012, published 2013)", "key": {"[1]": {"test_system": "K18-PL acetylation in QBI-293 cells", "assay": "Cell-based K18-PL acetylation assay in QBI-293 cells", "conditions": "C646 to block CBP/p300, 3MA-induced acetylation, overnight"}, "[2]": {"test_system": "2N4R-tau and tau-K18 auto-acetylation activity", "assay": "Tau acetyltransferase inhibition studies (pre-incubation with cysteine blocking agents, tubulin or microtubules)", "assay_type": "biochemical", "conditions": "pre-incubated with 0.5 mM NEM or 4 mM IA", "method": "FIG. 14, comprising FIGS. 14a-14c, is a series of images depicting the results of experiments showing that cysteine blocking agents inhibit tau-mediated acetyltransferase activity. […] FIG. 14c is an image showing bovine brain derived microtubule associated protein (MAP-rich) fractions containing all CNS tau isoforms that were evaluated in acetyltransferase assays in the presence of increased tubulin concentrations followed by immunoblotting with Ac-K280 and total tau (T46) antibodies.\nAcetyltransferase assays using purified tau proteins were performed as previously described and subjected to autoradiography or immunoblotting using the following anti-tau antibodies: anti-tau polyclonal (Dako, A0024, 1:10,000), anti-acetyl lysine (Cell Signaling, #9441, 1:1000), anti-tau monoclonal (T46, 1:1000), anti-mouse tau (T49, 1:1000), anti-acetylated tau (Ac-K280, 1:1000), anti-acetylated tau (Ac-K369, 1:1000). For tau acetyltransferase inhibition studies, tau proteins were pre-incubated with 0.5 mM N-ethyl-maleimide (NEM), 4 mM iodoacetamide (IA), or increasing concentrations of either tubulin (5-10 μM) or pre-formed microtubules (5 μM). […] Reaction products were readily distinguished between 2N4R-tau (Mr ˜65 kD) and tau-K18 (Mr ˜15 kD) by immunoblotting using acetylated tau (Ac-K280) and total tau (E10) antibodies. […]"}, "[3]": {"test_system": "HDAC6", "assay": "HDAC6 siRNA in HEK-T40 cells, immunoblotting", "assay_type": "cell-based, human", "method": "FIG. 7, comprising FIG. 7A through FIG. 7D, depicts the results of experiments which illustrate the characterization of the ac-K280 site-specific acetylated tau antibody. FIG. 7A illustrates the results of an experiment where recombinant WT-K18 or ΔK280-K18 proteins (1 μg) were incubated in the presence or absence of acetyl-CoA or CBP as indicated and K280 acetylation was determined by immunoblotting using anti-ac-K280 and a polyclonal antibody raised to exon 10 of tau protein (E10). FIG. 7B illustrates the results of an experiment where QBI-293 cells were co-transfected with WT-T40 tau or ΔK280-T40 mutant tau expression plasmids along with CBP to promote tau acetylation. 1, 2, and 5 μg total cell lysates were analyzed by western blotting using anti-ac-K280, total tau (T46), and GAPDH antibodies. […] Scale bar represents 50 μm. FIG. 7D illustrates the results of an experiment where control or HDAC6 siRNA expressing HEK-T40 cells were analyzed by immunoblotting using ac-K280, total tau, HDAC6, and GAPDH antibodies.\nThe longest human tau isoform (designated Tau-T40) was cloned into pCDNA5/TO vector (Invitrogen) and site-directed mutagenesis (Quikchange kit; Stratagene) was used to create K→Q or K→R mutations at residues K163, K280, K281, K369 as indicated. Indicated plasmids were transfected into either QBI-293 cells or stably expressing HEK-T40 cells using Fugene (Roche). […]"}, "[4]": {"test_system": "tubulin", "assay": "MT assembly light-scattering assay", "assay_type": "biochemical", "conditions": "30 μM tubulin, 40 μM tau proteins, 2 mM GTP", "method": "(§1) Recombinant full-length T40, 4R-tau MT-binding domain K18, or tau fibrils were acetylated by incubation with [^14C]-labeled acetyl-CoA in the presence or absence of CBP. FIG. 1A illustrates that the reaction products were analyzed by SDS-PAGE and Coomassie blue staining followed by overnight radiographic exposure using STORM phosphor-imager software. FIG. 1B depicts the results of an experiment where T40 or K18 proteins were incubated with acetyl-CoA and/or recombinant CBP and reaction products were subjected to immunoblot analysis using a polyclonal anti-tau-specific antibody for MT repeat domain (E10) and an anti-acetyl-lysine antibody. FIG. 1C is a graph depicting the MT assembly activities of K18 proteins as evaluated in light-scattering assays. Tubulin monomers (30 μM) were mixed with 40 μM tau proteins in MT assembly buffer supplemented with 2 mM guanosine triphosphate. MT assembly was determined by monitoring absorbance every minute at 350 nm using a SpectraMax plate reader. […] FIG. 1D is a graph illustrating the results of experiments where Tau proteins (10 μM) were evaluated in fibrillization reactions using 10 μM heparin to induce assembly. […] Samples were analysed by SDS-PAGE and Coomassie staining to monitor fibril formation. FIG. 1F illustrates the results of experiments where four-hour time points from fibrillization reactions were analysed by negative-staining EM. […]"}, "[5]": {"target": "T1, tau-K18 acetyltransferase activity (auto-acetylation) (Homo sapiens, UniProt P10636)", "T1 construct": "made in house", "T1 sequence (P10636 561-689 limits assumed)": "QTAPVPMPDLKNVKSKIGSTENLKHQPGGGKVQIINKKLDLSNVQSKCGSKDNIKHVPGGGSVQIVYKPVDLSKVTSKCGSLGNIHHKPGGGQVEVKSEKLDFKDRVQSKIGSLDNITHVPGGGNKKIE", "assay": "Tau auto-acetylation filter binding assay, kinetic analysis", "assay_type": "biochemical", "method": "(§2) Reactions were assembled in 50 μl of reaction buffer containing 50 mM Tris pH 8.0, 100 μM EDTA, and 10% glycerol. Unless specifically noted, reactions contained 25 μM of either WT tau-K18 or tau-K18-2CA mutant. The reactions were initiated by the addition of [^3H]-acetyl-CoA (2.35 Ci mmol^−1, Perkin Elmer) at concentrations ranging from 2.5 μM to 1 mM, incubated at 37° C., and allowed to proceed for 1 hr (unless otherwise noted). Reactions were stopped by the addition of 10 μl of 3 mM CoA, and 25 μl of the reaction was then spotted to a P81 filter paper (Whatman), washed in 10 mM HEPES pH 7.5 three times, and dried using acetone. Incorporated [^3H]-acetyl-CoA was then measured using the Perkin Elmer Tri-Carb 2800TR Liquid Scintillation Analyzer, and the molar amount of acetyl groups incorporated into tau were calculated from a standard curve of the radiolabeled acetyl-CoA."}, "[6]": {"test_system": "tau-K18 acetyltransferase activity (auto-acetylation)", "assay": "Tau auto-acetylation filter binding assay, kinetic analysis", "assay_type": "biochemical", "conditions": "tau-K18 proteins containing sequential deletions", "method": "as §2"}, "[7]": {"assay": "Heparin-induced tau fibrillization assay quantified by Thioflavin-T binding", "assay_type": "biochemical", "conditions": "10 μM tau proteins, 10 μM heparin, 4-h incubation", "method": "as §1\nTau K18 protein was either mock acetylated or acetylated in vitro using acetyl-CoA substrate as indicated elsewhere herein. […] Protein concentrations were determined using the bicinchoninic acid protein assay (Pierce) with bovine serum albumin as the standard. Acetylated K18 and mock-treated K18 were assessed by a light-scattering assay as described elsewhere herein. […] The extent of fibrillization was assessed at different time points by ThT fluorescence assay, sedimentation analysis and negative staining EM as described elsewhere herein. For ThT fluorescence assay, ThT diluted in 100 mM glycine buffer (pH 8.5) was added and fluorometric readings were taken at 450 nm (excitation) and 510 nm (emission). […]"}}, "note": "Entries after “also recorded” stand apart in the source; their conditions may differ."}
{"molecule": "CC1=NN(c2ccc(C(=O)O)cc2)C(=O)/C1=C\\c1ccc(-c2cc(C)c(C)cc2[N+](=O)[O-])o1", "note": "[C646]", "values": [{"measurement": "K18-PL acetylation levels", "setting": "[1]", "result": "no effect on K18-PL acetylation levels"}]}
{"molecule": "CCN1C(=O)C=CC1=O", "note": "[N-ethyl-maleimide]", "values": [{"measurement": "2N4R-tau or tau-K18 auto-acetylation activity after pretreatment", "setting": "[2]", "result": "abrogation of 2N4R-tau or tau-K18 auto-acetylation activity; also recorded: minimal acetyltransferase activity"}]}
{"molecule": "NC(=O)CI", "note": "[iodoacetamide]", "values": [{"measurement": "2N4R-tau or tau-K18 auto-acetylation activity after pretreatment", "setting": "[2]", "result": "abrogation of 2N4R-tau or tau-K18 auto-acetylation activity; also recorded: minimal acetyltransferase activity"}]}
{"molecule": "HDAC6 small interfering RNA: HDAC6 siRNA (Invitrogen) 5′-AAAGUUGGAACUCUCACGGUGCAGC-3′ (SEQ ID NO: 1) (listed as RNA, chemistry not given here)", "values": [{"measurement": "levels of ac-K280", "setting": "[3]", "result": "increased levels of ac-K280"}]}
{"molecule": "tau-K18: recombinant tau fragment encompassing all four MT-binding repeats", "values": [{"measurement": "MT assembly (absorbance at 350 nm)", "setting": "[4]", "result": "promoted tubulin assembly into MTs"}, {"measurement": "Kcat [auto]", "setting": "[5]; auto-acetylation, this study", "result": "8.3e-05", "unit": "s⁻¹"}, {"measurement": "Km", "setting": "[5]; auto-acetylation, this study, read-out: Km AcCoA [auto]", "result": 147, "unit": "µM"}, {"measurement": "turnover rate Kcat", "setting": "[5]; saturation plot against acetyl-CoA concentration", "result": "8.3e-05", "unit": "s⁻¹"}, {"measurement": "Km", "setting": "[6]", "result": 147, "unit": "µM"}, {"measurement": "fibrillization (ThT)", "setting": "[7]", "result": "did not fibrillize during the 4-h incubation period"}]}
